Test results published in ChEMBL document CHEMBL1201862, “PubChem BioAssay data set” (2004).
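How tested: cells in 96-well plates exposed to compound for 48 hours at five concentrations. At the GI50, growth is halved.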 Calls of active or inactive are those of the source. No stated cut-off is given here; in the data, active = GI50 up to about 1.1 µM and inactive = higher.

Key:
Assay in all cases: DTP human tumour cell line panel, 48 h
786-0 = tested on: 786-0
NCI-H522 = tested on: NCI-H522
SK-OV-3 = tested on: SK-OV-3
NCI-H226 = tested on: NCI-H226
A549 = tested on: A549
NCI-H23 = tested on: NCI-H23
SF-539 = tested on: SF-539
DU-145 = tested on: DU-145
CAKI-1 = tested on: CAKI-1
HCT-116 = tested on: HCT-116
SR = tested on: SR
SK-MEL-5 = tested on: SK-MEL-5
HOP-92 = tested on: HOP-92
IGROV-1 = tested on: IGROV-1
SNB-75 = tested on: SNB-75
OVCAR-3 = tested on: OVCAR-3
RPMI-8226 = tested on: RPMI-8226
ACHN = tested on: ACHN
COLO 205 = tested on: COLO 205
HL-60 = tested on: HL-60

Structure (SMILES)	GI50 (786-0)	GI50 (NCI-H522)	GI50 (SK-OV-3)	GI50 (NCI-H226)	GI50 (A549)	GI50 (NCI-H23)	GI50 (SF-539)	GI50 (DU-145)	GI50 (CAKI-1)	GI50 (HCT-116)	GI50 (SR)	GI50 (SK-MEL-5)	GI50 (HOP-92)	GI50 (IGROV-1)	GI50 (SNB-75)	GI50 (OVCAR-3)	GI50 (RPMI-8226)	GI50 (ACHN)	GI50 (COLO 205)	GI50 (HL-60)
COc1ccc2c3c1OC1C34CCN(C)C(C2)C4=CC(I)C1(OC)OC (stereo unspecified)	4.15 µM (inactive)	5.27 µM (inactive)	15 µM (inactive)	18.6 µM (inactive)	22.2 µM (inactive)	7.41 µM (inactive)	1.79 µM (inactive)	10.8 µM (inactive)	12.9 µM (inactive)	3.93 µM (inactive)	2.36 µM (inactive)	12 µM (inactive)	11.4 µM (inactive)	8.71 µM (inactive)	19.6 µM (inactive)	5.87 µM (inactive)	2.71 µM (inactive)	11.3 µM (inactive)	13.9 µM (inactive)	
CC1(C)OC[C@@H](O)[C@H](C#N)CO1	> 100 µM (inactive)	> 100 µM (inactive)	> 100 µM (inactive)	> 100 µM (inactive)	> 100 µM (inactive)	> 100 µM (inactive)	> 100 µM (inactive)	> 100 µM (inactive)	> 100 µM (inactive)	> 100 µM (inactive)	> 100 µM (inactive)	> 100 µM (inactive)			> 100 µM (inactive)	> 100 µM (inactive)	> 100 µM (inactive)	> 100 µM (inactive)	> 100 µM (inactive)	> 100 µM (inactive)
C/C(=N\NC(N)=S)c1ccc2c(c1)Sc1ccccc1O2	3.18 µM (inactive)		4.11 µM (inactive)	9.23 µM (inactive)	2.5 µM (inactive)	3.7 µM (inactive)	2.26 µM (inactive)	28.1 µM (inactive)	1.04 µM (active)	2.69 µM (inactive)	0.485 µM (active)	1.58 µM (inactive)	3.17 µM (inactive)		2.53 µM (inactive)	1.02 µM (active)	2.16 µM (inactive)	4.55 µM (inactive)	1.1 µM (active)	3.88 µM (inactive)
CC1=C(N2CC2)C(=O)C(CO)=C(N2CC2)C1=O	< 0.0321 µM (active)	0.013 µM (active)	0.0516 µM (active)	0.0506 µM (active)		0.0169 µM (active)	< 0.0123 µM (active)	< 0.01 µM (active)	< 0.01 µM (active)	< 0.0291 µM (active)	< 0.01 µM (active)	0.0279 µM (active)		0.0112 µM (active)	0.031 µM (active)	0.0203 µM (active)	< 0.0142 µM (active)	< 0.01 µM (active)		< 0.01 µM (active)
NC1=NC(c2ccc(Cl)cc2)N(c2ccc(S(N)(=O)=O)cc2)C(N)=N1 (stereo unspecified)	> 100 µM (inactive)	> 100 µM (inactive)	> 100 µM (inactive)	> 100 µM (inactive)	> 100 µM (inactive)	> 100 µM (inactive)	> 100 µM (inactive)	> 100 µM (inactive)	> 100 µM (inactive)	> 100 µM (inactive)	> 100 µM (inactive)	> 100 µM (inactive)	> 100 µM (inactive)	> 100 µM (inactive)	> 100 µM (inactive)	> 100 µM (inactive)	> 100 µM (inactive)	> 100 µM (inactive)	> 100 µM (inactive)	
Nc1nc(NNc2ccc(Cl)c(Cl)c2)cc(=O)[nH]1	21.6 µM (inactive)			78.9 µM (inactive)	45.7 µM (inactive)	34 µM (inactive)	99.1 µM (inactive)	35.8 µM (inactive)		52.4 µM (inactive)	31.7 µM (inactive)	33.4 µM (inactive)	21.9 µM (inactive)	28.4 µM (inactive)		23 µM (inactive)	32.2 µM (inactive)	35.6 µM (inactive)	16.6 µM (inactive)	26.4 µM (inactive)
O=C(c1ccccc1)c1c2ccccn2c2cccc[n+]12	> 100 µM (inactive)		> 100 µM (inactive)	> 100 µM (inactive)	82.4 µM (inactive)		> 100 µM (inactive)	> 100 µM (inactive)	> 100 µM (inactive)	> 100 µM (inactive)	> 100 µM (inactive)	47 µM (inactive)	> 100 µM (inactive)	> 100 µM (inactive)	> 100 µM (inactive)	> 100 µM (inactive)	> 100 µM (inactive)		20.1 µM (inactive)	79.6 µM (inactive)
CCCCCCCCCCCCCCCCCCNc1nc(=O)n(C2CC(O)C(COP(=O)(O)OCC3OC(n4ccc(N)nc4=O)C(O)C3O)O2)cc1F (stereo unspecified)	8.34 µM (inactive)	3.8 µM (inactive)	53.6 µM (inactive)	> 100 µM (inactive)	3.25 µM (inactive)	16 µM (inactive)	32.6 µM (inactive)	25.1 µM (inactive)	92.5 µM (inactive)	9.35 µM (inactive)	> 100 µM (inactive)	> 100 µM (inactive)	31.1 µM (inactive)	30.3 µM (inactive)	> 100 µM (inactive)	> 100 µM (inactive)	> 100 µM (inactive)	18.7 µM (inactive)	26.9 µM (inactive)	
FC(F)(Sc1ncccn1)c1nc2ccccc2o1	> 100 µM (inactive)	> 100 µM (inactive)	> 100 µM (inactive)	> 100 µM (inactive)	> 100 µM (inactive)	> 100 µM (inactive)	> 100 µM (inactive)	> 100 µM (inactive)	> 100 µM (inactive)	84.3 µM (inactive)	37.8 µM (inactive)	> 100 µM (inactive)	56.8 µM (inactive)	> 100 µM (inactive)	22 µM (inactive)	> 100 µM (inactive)	> 100 µM (inactive)	> 100 µM (inactive)	> 100 µM (inactive)	
O=C(C#CP(=O)(O)c1ccccc1)c1ccccc1	> 100 µM (inactive)	> 100 µM (inactive)	> 100 µM (inactive)		> 100 µM (inactive)	> 100 µM (inactive)	> 100 µM (inactive)	> 100 µM (inactive)	> 100 µM (inactive)	> 100 µM (inactive)	> 100 µM (inactive)	> 100 µM (inactive)	> 100 µM (inactive)	> 100 µM (inactive)	> 100 µM (inactive)	> 100 µM (inactive)		> 100 µM (inactive)	> 100 µM (inactive)	
Cc1c(/C=N/NC(=S)Nc2ccccc2)c(=O)n(-c2ccccc2)n1C	> 100 µM (inactive)		> 100 µM (inactive)	> 100 µM (inactive)		> 100 µM (inactive)	> 100 µM (inactive)	> 100 µM (inactive)	46.2 µM (inactive)	> 100 µM (inactive)	> 100 µM (inactive)	> 100 µM (inactive)	> 100 µM (inactive)	> 100 µM (inactive)	> 100 µM (inactive)		> 100 µM (inactive)	> 100 µM (inactive)	> 100 µM (inactive)	> 100 µM (inactive)
